US20110009343A1, “MODULATORS OF AMYLOID AGGREGATION” (Praecis Pharmaceuticals, Inc., priority 1995, published 2011)
Numbered stars: 1 amine (or outer) side, 2 acyl side, 3 side chain; on linkers, the order of the positions; unused ones are H or OH. Square brackets hold non-standard residues; d marks the D form. Peptide text beside a SMILES is read from it. * marks the point of attachment. Cholyl = C[C@H](CCC(=O)*)[C@H]1CC[C@H]2[C@@H]3[C@H](O)C[C@@H]4C[C@H](O)CC[C@]4(C)[C@H]3C[C@H](O)[C@]12C; X2 = O=C(C1(O)C[C@H](O)[C@@H](N[*:1])[C@H]([C@H](O)[C@H](O)CO)O1)[*:2]; X3 = N=C1N[C@H]2[C@H](CS[C@H]2CCCCC(=O)*)N1

Molecular target: T1, Aβ1-40 (Homo sapiens, UniProt P05067)
T1 construct: (β-AP1-40) was obtained commercially from Bachem (Torrance, Calif.); purchased Bachem (Torrance, Calif.)
T1 sequence (P05067 672-711): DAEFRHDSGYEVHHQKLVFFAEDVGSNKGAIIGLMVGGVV
Experiment: Nucleation assay (turbidity, A405 nm);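 further: synthetic Aβ monomer polymerization followed by turbidity in 96-well plates with continuous shaking, read every 15 minutes over 5 hours, compared against wells lacking test compound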
Type: biochemical
Conditions: for inhibition at 100 mol %: 100 mole % inhibitor, read-out: % Inucl'n (percent reduction in maximum observed turbidity)

[1] = Table II, 100 mole % vs 50 μM Aβ1-40

Source text: The nucleation assay is employed to determine the ability of test compounds to alter (e.g. inhibit) the early events in formation of β-AP fibers from monomeric β-AP. […] The time delay before polymerization of β-AP monomer can be quantified as well as the extent of formation of insoluble fiber by light scattering (turbidity). Polymerization reaches equilibrium when the maximum turbidity reaches a plateau. The turbidity of a solution of natural β-AP in the absence or presence of various concentrations of a β-amyloid modulator compound is determined by measuring the apparent absorbance of the solution at 405 nm (A405 nm) over time. The threshold of sensitivity for the measurement of turbidity is in the range of 15-20 μM β-AP. […] This assay can be performed using stirring or shaking to accelerate polymerization, thereby increasing the speed of the assay. Moreover the assay can be adapted to a 96-well plate format to screen multiple compounds.
HFIP-solubilized peptide is sonicated in a waterbath sonicator for 5 mM at highest setting, then evaporated to dryness under a stream of argon. The peptide film is resuspended in anhydrous dimethylsulfoxide (DMSO) at a concentration of 6.9 mg/ml (25× concentration), sonicated for 5 mM as before, then filtered through a 0.2 micron nylon syringe filter (VWR cat. No. 28196-050). Test compounds are dissolved in DMSO at a 100× concentration. […] Ten microliters of the mixture is then added to the bottom of a well of a Corning Costar ultra low binding 96-well plate (Corning Costar, Cambridge Mass.; cat. No. 2500). Ninety microliters of water is added to the well, the plate is shaken on a rotary shaken at a constant speed at room temperature for 30 seconds, an additional 100 μl of 2×PTL buffer (20 mM NaH2PO4, 300 mM NaCl, pH 7.4) is added to the well, the plate is reshaken for 30 seconds and a baseline (t=0) turbidity reading is taken by measuring the apparent absorbance at 405 nm using a Bio-Rad Model 450 Microplate Reader. The plate is then returned to the shaker and shaken continuously for 5 hours. Turbidity readings are taken at 15 minute intervals.
β-amyloid aggregation in the absence of any modulators results in enhanced turbidity of the natural β-AP solution (i.e., an increase in the apparent absorbance at 405 nm over time).
Accordingly a fold increase in lag time of 1.0 indicates no change in lag time, whereas numbers >1.0 indicate an increase in lag time. The “% inhibition of plateau”, which is a measure of the ability of the compound to decrease the total amount of aggregation, refers to the reduction of the final turbidity in the presence of the test compound expressed as a percent of the control without the test compound.

| SMILES | Fold Increase in Lag Time [1] | further results |
| --- | --- | --- |
| CC(=O)N[C@H]1[C@H]([C@H](O)[C@H](O)CO)OC(O)(C(=O)N[C@@H](Cc2c[nH]cn2)C(=O)N[C@@H](CC(=O)O)C(=O)N[C@@H](CO)C(=O)NCC(=O)N[C@@H](Cc2ccc(O)cc2)C(=O)N[C@@H](CCC(=O)O)C(=O)N[C@H](C(=O)N[C@@H](Cc2c[nH]cn2)C(=O)N[C@@H](Cc2c[nH]cn2)C(=O)N[C@@H](CCC(N)=O)C(=O)N[C@@H](CCCCN)C(=O)N[C@@H](CC(C)C)C(=O)N[C@H](C(=O)N[C@@H](Cc2ccccc2)C(=O)N[C@@H](Cc2ccccc2)C(=O)O)C(C)C)C(C)C)C[C@@H]1O (stereo partly drawn) [PPI-266] (Ac-[X2]HDSGYEVHHQKLVFF-OH) | 1.3 fold | – |
| CC(C)C[C@H](NC(=O)[C@H](CCCCN)NC(=O)[C@H](CCC(N)=O)NC(=O)[C@H](Cc1c[nH]cn1)NC(=O)[C@H](Cc1c[nH]cn1)NC(=O)[C@@H](NC(=O)[C@H](CCC(=O)O)NC(=O)[C@H](Cc1ccc(O)cc1)NC(=O)CNC(=O)[C@H](CO)NC(=O)[C@H](CC(=O)O)NC(=O)[C@H](Cc1c[nH]cn1)NC(=O)CCCC[C@@H]1SC[C@@H]2NC(=N)N[C@@H]21)C(C)C)C(=O)N[C@H](C(=O)N[C@@H](Cc1ccccc1)C(=O)N[C@@H](Cc1ccccc1)C(=O)O)C(C)C [PPI-267, iminobiotinyl-Aβ6-20] (X3-HDSGYEVHHQKLVFF-OH) | 1.6 fold | – |
| CC(C)C[C@H](NC(=O)[C@H](CCCCN)NC(=O)CC[C@@H](C)[C@H]1CC[C@H]2[C@@H]3[C@H](O)C[C@@H]4C[C@H](O)CC[C@]4(C)[C@H]3C[C@H](O)[C@]12C)C(=O)N[C@H](C(=O)N[C@@H](Cc1ccccc1)C(=O)N[C@@H](Cc1ccccc1)C(=O)N[C@@H](C)C(=O)N[C@@H](CCC(=O)O)C(=O)N[C@@H](CC(=O)O)C(=O)N[C@H](C(=O)NCC(=O)N[C@@H](CO)C(=O)N[C@@H](CC(N)=O)C(=O)N[C@@H](CCCCN)C(=O)NCC(=O)N[C@@H](C)C(=O)O)C(C)C)C(C)C [PPI-274] (Cholyl-KLVFFAEDVGSNKGA-OH) | >4.5 fold | – |
| CC(=O)N[C@H]1[C@H]([C@H](O)[C@H](O)CO)OC(O)(C(=O)N[C@@H](CCCCN)C(=O)N[C@@H](CC(C)C)C(=O)N[C@H](C(=O)N[C@@H](Cc2ccccc2)C(=O)N[C@@H](Cc2ccccc2)C(=O)N[C@@H](C)C(=O)N[C@@H](CCC(=O)O)C(=O)N[C@@H](CC(=O)O)C(=O)N[C@H](C(=O)NCC(=O)N[C@@H](CO)C(=O)N[C@@H](CC(N)=O)C(=O)N[C@@H](CCCCN)C(=O)NCC(=O)N[C@@H](C)C(=O)O)C(C)C)C(C)C)C[C@@H]1O (stereo partly drawn) [PPI-276] (Ac-[X2]KLVFFAEDVGSNKGA-OH) | ~1 fold | – |
| CC(C)C[C@H](NC(=O)[C@H](CCCCN)NC(=O)CCCC[C@@H]1SC[C@@H]2NC(=N)N[C@@H]21)C(=O)N[C@H](C(=O)N[C@@H](Cc1ccccc1)C(=O)N[C@@H](Cc1ccccc1)C(=O)N[C@@H](C)C(=O)N[C@@H](CCC(=O)O)C(=O)N[C@@H](CC(=O)O)C(=O)N[C@H](C(=O)NCC(=O)N[C@@H](CO)C(=O)N[C@@H](CC(N)=O)C(=O)N[C@@H](CCCCN)C(=O)NCC(=O)N[C@@H](C)C(=O)O)C(C)C)C(C)C [PPI-277] (X3-KLVFFAEDVGSNKGA-OH) | 1.2 fold | – |
| CC[C@H](C)[C@H](NC(=O)[C@H](C)NC(=O)CNC(=O)[C@H](CCCCN)NC(=O)[C@H](CC(N)=O)NC(=O)[C@H](CO)NC(=O)CNC(=O)[C@@H](NC(=O)[C@H](CC(=O)O)NC(=O)[C@H](CCC(=O)O)NC(=O)[C@H](C)NC(=O)CC[C@@H](C)[C@H]1CC[C@H]2[C@@H]3[C@H](O)C[C@@H]4C[C@H](O)CC[C@]4(C)[C@H]3C[C@H](O)[C@]12C)C(C)C)C(=O)N[C@H](C(=O)NCC(=O)N[C@@H](CC(C)C)C(=O)N[C@@H](CCSC)C(=O)O)[C@@H](C)CC [PPI-279] (Cholyl-AEDVGSNKGAIIGLM-OH) | 1.6 fold | – |
| CC[C@H](C)[C@H](NC(=O)[C@H](C)NC(=O)CNC(=O)[C@H](CCCCN)NC(=O)[C@H](CC(N)=O)NC(=O)[C@H](CO)NC(=O)CNC(=O)[C@@H](NC(=O)[C@H](CC(=O)O)NC(=O)[C@H](CCC(=O)O)NC(=O)[C@H](C)NC(=O)C1(O)C[C@H](O)[C@@H](NC(C)=O)[C@H]([C@H](O)[C@H](O)CO)O1)C(C)C)C(=O)N[C@H](C(=O)NCC(=O)N[C@@H](CC(C)C)C(=O)N[C@@H](CCSC)C(=O)O)[C@@H](C)CC (stereo partly drawn) [PPI-281] (Ac-[X2]AEDVGSNKGAIIGLM-OH) | ~1 fold | – |
| CC[C@H](C)[C@H](NC(=O)[C@H](C)NC(=O)CNC(=O)[C@H](CCCCN)NC(=O)[C@H](CC(N)=O)NC(=O)[C@H](CO)NC(=O)CNC(=O)[C@@H](NC(=O)[C@H](CC(=O)O)NC(=O)[C@H](CCC(=O)O)NC(=O)[C@H](C)NC(=O)CCCC[C@@H]1SC[C@@H]2NC(=N)N[C@@H]21)C(C)C)C(=O)N[C@H](C(=O)NCC(=O)N[C@@H](CC(C)C)C(=O)N[C@@H](CCSC)C(=O)O)[C@@H](C)CC [PPI-282] (X3-AEDVGSNKGAIIGLM-OH) | ~1 fold | – |
| CC[C@H](C)[C@H](NC(=O)[C@H](C)NC(=O)CNC(=O)[C@H](CCCCN)NC(=O)[C@H](CC(N)=O)NC(=O)[C@H](CO)NC(=O)CC[C@@H](C)[C@H]1CC[C@H]2[C@@H]3[C@H](O)C[C@@H]4C[C@H](O)CC[C@]4(C)[C@H]3C[C@H](O)[C@]12C)C(=O)N[C@H](C(=O)NCC(=O)N[C@@H](CC(C)C)C(=O)N[C@@H](CCSC)C(=O)N[C@H](C(=O)NCC(=O)NCC(=O)N[C@H](C(=O)N[C@H](C(=O)O)C(C)C)C(C)C)C(C)C)[C@@H](C)CC [PPI-284] (Cholyl-SNKGAIIGLMVGGVV-OH) | >4.5 fold | – |
| CC[C@H](C)[C@H](NC(=O)[C@H](C)NC(=O)CNC(=O)[C@H](CCCCN)NC(=O)[C@H](CC(N)=O)NC(=O)[C@H](CO)NC(=O)C1(O)C[C@H](O)[C@@H](NC(C)=O)[C@H]([C@H](O)[C@H](O)CO)O1)C(=O)N[C@H](C(=O)NCC(=O)N[C@@H](CC(C)C)C(=O)N[C@@H](CCSC)C(=O)N[C@H](C(=O)NCC(=O)NCC(=O)N[C@H](C(=O)N[C@H](C(=O)O)C(C)C)C(C)C)C(C)C)[C@@H](C)CC (stereo partly drawn) [PPI-286] (Ac-[X2]SNKGAIIGLMVGGVV-OH) | 1.3 fold | – |
| CC[C@H](C)[C@H](NC(=O)[C@H](C)NC(=O)CNC(=O)[C@H](CCCCN)NC(=O)[C@H](CC(N)=O)NC(=O)[C@H](CO)NC(=O)CCCC[C@@H]1SC[C@@H]2NC(=N)N[C@@H]21)C(=O)N[C@H](C(=O)NCC(=O)N[C@@H](CC(C)C)C(=O)N[C@@H](CCSC)C(=O)N[C@H](C(=O)NCC(=O)NCC(=O)N[C@H](C(=O)N[C@H](C(=O)O)C(C)C)C(C)C)C(C)C)[C@@H](C)CC [PPI-287] (X3-SNKGAIIGLMVGGVV-OH) | 2.3 fold | – |
| C[C@H](CCC(=O)O)[C@H]1CC[C@H]2[C@@H]3[C@H](O)C[C@@H]4C[C@H](O)CC[C@]4(C)[C@H]3C[C@H](O)[C@]12C [PPI-293, Cholic acid, reference compound] | – | inhibitory activity on Aβ aggregation: had no effect on Aβ aggregation; inhibition at 100 mol % (Table V): 0% |
| CC(C)C[C@H](NC(=O)[C@H](CCCCN)NC(=O)[C@H](CCC(N)=O)NC(=O)[C@H](Cc1c[nH]cn1)NC(=O)[C@H](Cc1c[nH]cn1)NC(=O)[C@@H](NC(=O)[C@H](CCC(=O)O)NC(=O)[C@H](Cc1ccc(O)cc1)NC(=O)CNC(=O)[C@H](CO)NC(=O)[C@H](CC(=O)O)NC(=O)[C@H](Cc1c[nH]cn1)NC(=O)CC[C@@H](C)[C@H]1CC[C@H]2[C@@H]3[C@H](O)C[C@@H]4C[C@H](O)CC[C@]4(C)[C@H]3C[C@H](O)[C@]12C)C(C)C)C(=O)N[C@H](C(=O)N[C@@H](Cc1ccccc1)C(=O)N[C@@H](Cc1ccccc1)C(N)=O)C(C)C [PPI-296] (Cholyl-HDSGYEVHHQKLVFF-NH2) | – | Fold Increase in Lag Time (Table III, 33 mole %): 1.8 fold |
| CC(C)C[C@H](NC(=O)[C@H](CCCCN)NC(=O)[C@H](CCC(N)=O)NC(=O)[C@H](Cc1c[nH]cn1)NC(=O)[C@H](Cc1c[nH]cn1)NC(=O)[C@@H](NC(=O)[C@H](CCC(=O)O)NC(=O)[C@H](Cc1ccc(O)cc1)NC(=O)CNC(=O)[C@H](CO)NC(=O)[C@H](CC(=O)O)NC(=O)[C@H](Cc1c[nH]cn1)NC(=O)CC[C@@H](C)[C@H]1CC[C@H]2[C@@H]3[C@H](O)C[C@@H]4C[C@H](O)CC[C@]4(C)[C@H]3C[C@H](O)[C@]12C)C(C)C)C(N)=O [PPI-325] (Cholyl-HDSGYEVHHQKL-NH2) | – | Fold Increase in Lag Time (Table III, 33 mole %): 1.8 fold |
| CC(C)[C@H](NC(=O)[C@H](CCC(=O)O)NC(=O)[C@H](Cc1ccc(O)cc1)NC(=O)CNC(=O)[C@H](CO)NC(=O)[C@H](CC(=O)O)NC(=O)[C@H](Cc1c[nH]cn1)NC(=O)CC[C@@H](C)[C@H]1CC[C@H]2[C@@H]3[C@H](O)C[C@@H]4C[C@H](O)CC[C@]4(C)[C@H]3C[C@H](O)[C@]12C)C(=O)N[C@@H](Cc1c[nH]cn1)C(=O)N[C@@H](Cc1c[nH]cn1)C(N)=O [PPI-331] (Cholyl-HDSGYEVHH-NH2) | – | Fold Increase in Lag Time (Table III, 33 mole %): 1.0 fold |
| C[C@H](CCC(=O)N[C@@H](Cc1c[nH]cn1)C(=O)N[C@@H](CC(=O)O)C(=O)N[C@@H](CO)C(=O)NCC(=O)N[C@@H](Cc1ccc(O)cc1)C(N)=O)[C@H]1CC[C@H]2[C@@H]3[C@H](O)C[C@@H]4C[C@H](O)CC[C@]4(C)[C@H]3C[C@H](O)[C@]12C [PPI-339] (Cholyl-HDSGY-NH2) | – | Fold Increase in Lag Time (Table III, 33 mole %): 1.1 fold; ΔLag (ratio of lag time with test compound to lag time of control) (Table V, 100 mole % inhibitor relative to Aβ1-40): 1.1; inhibition at 100 mol % (Table V): -18% |
| CC(C)C[C@H](NC(=O)[C@H](CCCCN)NC(=O)[C@H](CCC(N)=O)NC(=O)[C@H](Cc1c[nH]cn1)NC(=O)[C@H](Cc1c[nH]cn1)NC(=O)[C@@H](NC(=O)[C@H](CCC(=O)O)NC(=O)[C@H](Cc1ccc(O)cc1)NC(=O)CNC(=O)[C@H](CO)NC(=O)[C@H](CC(=O)O)NC(=O)CC[C@@H](C)[C@H]1CC[C@H]2[C@@H]3[C@H](O)C[C@@H]4C[C@H](O)CC[C@]4(C)[C@H]3C[C@H](O)[C@]12C)C(C)C)C(=O)N[C@H](C(=O)N[C@@H](Cc1ccccc1)C(=O)N[C@@H](Cc1ccccc1)C(=O)O)C(C)C [PPI-341, cholyl-Aβ7-20] (Cholyl-DSGYEVHHQKLVFF-OH) | – | Fold Increase in Lag Time (Table III, 33 mole %): 2 fold; Fold Increase in Lag Time (Table III, 100 mole %): >4.5 fold |
